# Data: patent US20200179335A1, “TREATMENT OF DISEASES ASSOCIATED WITH A DYSREGULATION OF THE mTOR PATHWAY” (BIOCODEX, priority 2017, published 2020)
# Columns and labels:
# [1] = tested on: Akt (P13K-Akt, upstream modulator of the mTOR pathway); assay: Western blot of Akt phosphorylation in hippocampus of pentylenetetrazol-treated rats; format: in vivo, rat; settings: for ratio of phosphorylated Akt related to total Akt: hippocampus of adult male Sprague-Dawley rats, pretreatment i.p. (stiripentol 300 mg/kg or wortmannin 2.4 mg/kg) 30 min before pentylenetetrazol 80 mg/kg s.c., sacrifice 30 min after PTZ, tween-PTZ control 1.81
# Procedure: (§1) The mTOR pathway has been studied at two levels (i) an upstream level of regulation with the P13K-Akt, a modulator of the mTOR pathway and (ii) a downstream level with the ribosomal protein S6, the substrate of the S6 kinase, a direct downstream effector of the mTOR pathway. Adult male Sprague-Dawley rats (Janvier, 220-250 g, n=24, 7 weeks old) were used in this study. They were housed 2 per cage (Techniplast ref. 1291), and maintained in a 12 h light/dark cycle (light ON at 7 AM). Food and water were provided ad libitum. The experiments were conducted in accordance with the European Recommendations (directive 2010/63/EU) for the use and care of laboratory animals. The experimental protocol has been approved by the ethics committee. Pentylenetetrazol (batch MKB[…], SIGMA), 80 mg/kg in 0.9% NaCl was administered subcutaneously in an injection volume of 5 mL/kg. Wortmannin (Sigma), 2.4 mg/kg in DMSO 10% v/v in 0.9% NaCl or Stiripentol (Biocodex), 300 mg/kg in tween80 5% v/v, were injected intraperitoneally (10 mL/kg) 30 min before pentylenetetrazol administration. […] The protein concentration of each sample was determined by a BCA protein assay. […] Signals were detected by enzyme chemiluminescence (Vilber Lourmat Fusion FX5 system) and quantitatively analyzed with the Bio-1 D software (Vilber Lourmat, France). […] Each membrane was also stripped (RestoreTM western blot stripping buffer, Thermoscientific) and reprobed to detect beta-actin protein levels, a control for the total quantity of protein deposited. […] The difference between groups was assessed by a two-way ANOVA followed by a Holm-Sidak multiple comparison (factor pretreatment=tween or STP, factor treatment=NaCl or PTZ). The effect of wortmaninn was assessed by a t-test comparison between tween-pentylenetetrazol (n=5) versus wortmannin-pentylenetetrazol groups (n=3).
# [2] = tested on: ribosomal protein S6 (downstream effector of the mTOR pathway); assay: Western blot of S6 protein phosphorylation in hippocampus of pentylenetetrazol-treated rats; format: in vivo, rat; settings: for ratio of phosphorylated S6 related to total S6 protein: hippocampus of adult male Sprague-Dawley rats, pretreatment i.p. (stiripentol 300 mg/kg or wortmannin 2.4 mg/kg) 30 min before pentylenetetrazol 80 mg/kg s.c., sacrifice 30 min after PTZ, Veh-PTZ control 0.79
# Procedure: as §1
# [3] = hippocampus, rats pretreated i.p. 30 min before pentylenetetrazol 80 mg/kg s.c.
structure (smiles),measurement,setting,value
"CC(C)(C)C(O)/C=C/c1ccc2c(c1)OCO2 (racemic) [stiripentol, 1-penten-3-ol, 1-(1,3-benzodioxol)-4,4-dimethyl]",ratio of phosphorylated Akt related to total Akt,[1],2.46
same,band of phosphorylated Akt in western blot (FIG. 1),[1]; [3],strong band
same,ratio of phosphorylated S6 related to total S6 protein,[2],0.36
same,band of phosphorylated S6 protein in western blot (FIG. 3),[2]; [3],No band was visible
COC[C@H]1OC(=O)c2coc3c2[C@@]1(C)C1=C(C3=O)[C@@H]2CCC(=O)[C@@]2(C)C[C@H]1OC(C)=O [wortmannin],ratio of phosphorylated Akt related to total Akt,[1],0.40
same,ratio of phosphorylated S6 related to total S6 protein,[2],0.30
